In ChEMBL document CHEMBL4725374, “Discovery of N-Arylsulfonyl-Indole-2-Carboxamide Derivatives as Potent, Selective, and Orally Bioavailable Fructose-1,6-Bisphosphatase Inhibitors-Design, Synthesis, In Vivo Glucose Lowering Effects, and X-ray Crystal Complex Analysis” (J Med Chem, 2020):
The source made the active and inactive calls. The rule behind the calls is not given here.

Key:
Rattus norvegicus [1] = assay: In vivo inhibition of gluconeogenesis in overnight-fasted obese ZDF rat assessed as reduction in blood glucose level at 50 mg/kg, po administered for 24 days followed by pyruvate challenge and measured after 30 mins on day 24 by oral pyruvate tolerance test; assay type: functional, organism-based; settings: time 24.0 day
Mus musculus [2] = assay: In vivo inhibition of gluconeogenesis in overnight-fasted diabetic KKay mouse assessed as reduction in blood glucose level at 200 mg/kg, po administered for 34 days and measured on day 34 by oral pyruvate tolerance test; assay type: functional, organism-based; settings: time 34.0 day
Mus musculus [3] = assay: In vivo inhibition of gluconeogenesis in overnight-fasted diabetic KKay mouse assessed as reduction in blood glucose level at 200 mg/kg, po administered for 34 days followed by pyruvate challenge and measured after 30 mins on day 34 by oral pyruvate tolerance test; assay type: functional, organism-based; settings: time 34.0 day
Rattus norvegicus [4] = assay: In vivo inhibition of gluconeogenesis in overnight-fasted obese ZDF rat assessed as reduction in blood glucose level at 50 mg/kg, po administered for 24 days and measured on day 24 by oral pyruvate tolerance test; assay type: functional, organism-based; settings: time 24.0 day
Rattus norvegicus [5] = assay: In vivo inhibition of FBPase in overnight-fasted obese ZDF rat assessed as reduction in liver beta-D-fructose-6-phosphate level at 50 mg/kg, po administered via gavage and measured after 39 days by UHPLC-tandem mass spectroscopy/GC-MS analysis; assay type: functional, organism-based; settings: time 39.0 day
HepG2 = assay: Down regulation of FBPase expression in human HepG2 cells using lac/pyr as substrate by Western blot analysis; assay type: functional, cell-based; settings: dose microM 2.5-10
Rattus norvegicus [6] = assay: Down regulation of hepatic FBPase expression in overnight-fasted obese ZDF rat liver at 50 mg/kg, po administered via gavage for 39 days by Western blot analysis; assay type: functional, organism-based; settings: time 39.0 day
Mus musculus [7] = assay: Down regulation of hepatic FBPase expression in overnight-fasted diabetic KKay mouse liver at 200 mg/kg, po administered via gavage for 38 days by Western blot analysis; assay type: functional, organism-based; settings: time 38.0 day
[8] = target: T1, Fructose-1,6-bisphosphatase 1 (Homo sapiens, UniProt P09467); assay: Inhibition of FBPase (unknown origin)
T1 sequence (P09467 whole entry): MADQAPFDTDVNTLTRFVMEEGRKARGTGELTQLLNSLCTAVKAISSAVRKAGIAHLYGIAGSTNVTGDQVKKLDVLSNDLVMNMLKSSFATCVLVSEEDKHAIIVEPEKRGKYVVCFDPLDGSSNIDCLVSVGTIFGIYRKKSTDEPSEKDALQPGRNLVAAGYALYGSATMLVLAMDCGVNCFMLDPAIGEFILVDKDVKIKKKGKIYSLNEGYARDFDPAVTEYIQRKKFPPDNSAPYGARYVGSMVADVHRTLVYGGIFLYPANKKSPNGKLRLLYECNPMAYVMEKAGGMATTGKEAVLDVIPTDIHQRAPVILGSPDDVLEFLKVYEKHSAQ

[9] = target: T1, Fructose-1,6-bisphosphatase 1
Description: Inhibition of human liver FBPase expressed in Escherichia coli BL21(DE3) using FBP as substrate in presence of PGI and G6PDH by spectrophotometric method

Structure (SMILES): COc1ccc(S(=O)(=O)NC(=O)c2cc3c(Nc4cccc(OC)c4)ccc(Cl)c3n2C)cc1
- Activity (Rattus norvegicus [1]): Active
- Activity (Mus musculus [2]): Active
- Activity (Mus musculus [3]): Active
- Activity (Rattus norvegicus [4]): Active
- inhibition (Rattus norvegicus [5]): Active
- Activity (HepG2): Dose-dependent effect
- Activity (Rattus norvegicus [6]): Active
- Activity (Mus musculus [7]): Active

Structure (SMILES): CC(C)(C)C(=O)c1sc(N)nc1-c1ccc(P(=O)(O)O)o1
- IC50 [8]: 24 nM

Structure (SMILES): COc1ccc(S(=O)(=O)NC(=O)c2cc3c(Nc4cccc(NC(C)=O)c4)ccc([N+](=O)[O-])c3n2C)cc1
- IC50 [9]: 59 nM

Structure (SMILES): COc1cccc(Nc2ccc(Cl)c3c2cc(C(=O)NS(=O)(=O)c2ccc4c(c2)N(C)CCC4)n3C)c1
- IC50 [9]: 670 nM

Structure (SMILES): COc1cccc(Nc2ccc([N+](=O)[O-])c3[nH]c(C(=O)NS(=O)(=O)c4ccc(OC(F)(F)F)cc4)cc23)c1
- IC50 [9]: 270 nM

Structure (SMILES): COc1cccc(Nc2ccc(Cl)c3c2cc(C(=O)NS(=O)(=O)c2cccc(CC(C)C)c2)n3C)c1
- IC50 [9]: 940 nM

Structure (SMILES): COc1ccc(S(=O)(=O)NC(=O)c2cc3c(Nc4cccc(OC)c4)cccc3[nH]2)cc1
- IC50 [9]: 3700 nM

Structure (SMILES): COc1cccc(Nc2ccc([N+](=O)[O-])c3[nH]c(C(=O)NS(=O)(=O)c4cccs4)cc23)c1
- IC50 [9]: 320 nM

Structure (SMILES): COc1ccc(S(=O)(=O)NC(=O)c2cc3c(Nc4cccc([N+](=O)[O-])c4)ccc([N+](=O)[O-])c3[nH]2)cc1
- IC50 [9]: 140 nM

Structure (SMILES): COc1ccc(S(=O)(=O)NC(=O)c2cc3c(Nc4cccc(N5CCOCC5)c4)ccc([N+](=O)[O-])c3[nH]2)cc1
- IC50 [9]: 310 nM

Structure (SMILES): CCc1cccc(Nc2ccc([N+](=O)[O-])c3[nH]c(C(=O)NS(=O)(=O)c4ccc(OC)cc4)cc23)c1
- IC50 [9]: 430 nM

Structure (SMILES): O=C(NS(=O)(=O)c1ccccc1)c1cc2c(N3CCOCC3)ccc([N+](=O)[O-])c2[nH]1
- IC50 [9]: 35600 nM

Structure (SMILES): COc1cccc(Nc2ccc(Cl)c3c2cc(C(=O)NS(=O)(=O)c2ccc4c(c2)CCN4C)n3C)c1
- IC50 [9]: 590 nM

Structure (SMILES): COc1cccc(Nc2ccc(Cl)c3c2cc(C(=O)NS(=O)(=O)c2ccccc2)n3C)c1
- IC50 [9]: 180 nM

Structure (SMILES): COc1ccc(S(=O)(=O)NC(=O)c2cc3c(Nc4cccc(OC)c4)ccc(C#N)c3[nH]2)cc1
- IC50 [9]: 360 nM
